In PubChem BioAssay AID504814 (The Scripps Research Institute Molecular Screening Center, 2011):
The source made the active and inactive calls.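 Rule for the calls: active = EC50 of 10 µM or lower; inactive = EC50 above 10 µM.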

target: Caspase-7 (Homo sapiens) (UniProt P55210); assay: procaspase-7 activation by procaspase-3 probe candidates, late-stage follow-up, selectivity assay for procaspase-3 activator project, biochemical, absorbance, PC-7 D3A triple mutant, powder samples (AID 504814); conditions: recombinant procaspase-7 D3A, Ac-DEVD-pNA absorbance
Sequence (P55210 whole entry D23A/D198A/D206A): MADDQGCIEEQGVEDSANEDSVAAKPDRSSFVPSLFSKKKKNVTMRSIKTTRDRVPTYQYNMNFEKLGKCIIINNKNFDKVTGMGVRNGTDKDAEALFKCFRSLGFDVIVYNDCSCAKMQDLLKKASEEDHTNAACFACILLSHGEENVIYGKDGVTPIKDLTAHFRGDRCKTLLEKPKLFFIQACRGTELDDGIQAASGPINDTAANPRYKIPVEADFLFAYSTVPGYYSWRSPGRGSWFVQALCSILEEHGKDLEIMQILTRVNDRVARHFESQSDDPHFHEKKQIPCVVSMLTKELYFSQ

Question: Which EC50 does the source give for COc1ccccc1Nc1nc2c(C)cccc2cc1C#N here?
Answer: > 85.3 µM (inactive)

Question: Which EC50 does the source give for CC(NC(=O)c1cc2cc([N+](=O)[O-])ccc2oc1=O)C1CCCO1 (stereo not given) here?
Answer: inactive

Question: Which EC50 does the source give for C=CCn1c(=NC(=O)c2cc(-c3cccs3)nc3ccccc23)sc2cc(S(N)(=O)=O)ccc21 here?
Answer: 7.68 µM

Question: With CC(=O)Oc1cccc2c1C(=O)c1c(OC(C)=O)cc(C(=O)O)cc1C2=O as the compound, how does the EC50 read?
Answer: inactive

Question: For COC(=O)c1ccccc1NCc1cc(=O)oc2cc(O)c(O)cc12, which EC50 is on record?
Answer: > 85.3 µM (inactive)
